Laboratory results published in the NIST ThermoML archive (doi:10.1016/j.jct.2006.04.007).

Assay: mn = molality of the nth substance listed, in mol/kg
Conditions: 350 kPa, Liquid; for apparent molar heat capacity: Extra sensitive DSC

CNC(C)=O [N-methylacetamide] + O
Conditions	apparent molar heat capacity [J/K/mol]	mass density [kg/m3]
278.15 K, m1 = 0.015	221	999.98
278.15 K, m1 = 0.04	230	1000.02
278.15 K, m1 = 0.07	243.9	1000.14
278.15 K, m1 = 0.1001	239.7	1000.14
278.15 K, m1 = 0.2002	240.2	1000.14
278.15 K, m1 = 0.4	238.2	1000.26
278.15 K, m1 = 0.599	251.1	1000.35
278.15 K, m1 = 0.8028	237.5	1000.66
278.15 K, m1 = 1	236.3	1000.98
283.15 K, m1 = 0.015	217	999.8
283.15 K, m1 = 0.04	225	999.78
283.15 K, m1 = 0.07	246	999.85
283.15 K, m1 = 0.1001	242.5	999.83
283.15 K, m1 = 0.2002	243.9	999.82
283.15 K, m1 = 0.4	242.3	999.89
283.15 K, m1 = 0.599	254.9	1000
283.15 K, m1 = 0.8028	242.4	1000.14
283.15 K, m1 = 1	241.4	1000.43
288.15 K, m1 = 0.015	213	999.2
288.15 K, m1 = 0.04	221	999.19
288.15 K, m1 = 0.07	247	999.23
288.15 K, m1 = 0.1001	247.1	999.22
288.15 K, m1 = 0.2002	247.9	999.16
288.15 K, m1 = 0.4	246	999.24
288.15 K, m1 = 0.599	257.6	999.28
288.15 K, m1 = 0.8028	245.8	999.39
288.15 K, m1 = 1	244.9	999.54
293.15 K, m1 = 0.015	220	–
293.15 K, m1 = 0.04	230	–
293.15 K, m1 = 0.07	250	–
293.15 K, m1 = 0.1001	251.4	–
293.15 K, m1 = 0.2002	251.6	–
293.15 K, m1 = 0.4	249.2	–
293.15 K, m1 = 0.599	259.8	–
293.15 K, m1 = 0.8028	248.7	–
293.15 K, m1 = 1	248	–
298.15 K, m1 = 0.015	228	–
298.15 K, m1 = 0.04	238	–
298.15 K, m1 = 0.07	252.1	–
298.15 K, m1 = 0.1001	254.8	–
298.15 K, m1 = 0.2002	254.7	–
298.15 K, m1 = 0.4	251.85	–
298.15 K, m1 = 0.599	261.9	–
298.15 K, m1 = 0.8028	251.4	–
298.15 K, m1 = 1	250.8	–
303.15 K, m1 = 0.015	232	–
303.15 K, m1 = 0.04	245	–
303.15 K, m1 = 0.07	254.5	–
303.15 K, m1 = 0.1001	259	–
303.15 K, m1 = 0.2002	258.7	–
303.15 K, m1 = 0.4	254.53	–
303.15 K, m1 = 0.599	264	–
303.15 K, m1 = 0.8028	254.1	–
303.15 K, m1 = 1	253.5	–
308.15 K, m1 = 0.015	236	994.14
308.15 K, m1 = 0.04	250.5	994.12
308.15 K, m1 = 0.07	257.5	994.1
308.15 K, m1 = 0.1001	262.8	994.07
308.15 K, m1 = 0.2002	261.8	993.96
308.15 K, m1 = 0.4	257.09	993.88
308.15 K, m1 = 0.599	266	993.8
308.15 K, m1 = 0.8028	256.5	993.77
308.15 K, m1 = 1	255.95	993.7
313.15 K, m1 = 0.015	243	–
313.15 K, m1 = 0.04	256.4	–
313.15 K, m1 = 0.07	259.8	–
313.15 K, m1 = 0.1001	264.8	–
313.15 K, m1 = 0.2002	263.9	–
313.15 K, m1 = 0.4	259.34	–
313.15 K, m1 = 0.599	267.9	–
313.15 K, m1 = 0.8028	258.7	–
313.15 K, m1 = 1	258.14	–
318.15 K, m1 = 0.015	252	990.32
318.15 K, m1 = 0.04	264.9	990.29
318.15 K, m1 = 0.07	261.2	990.24
318.15 K, m1 = 0.1001	266	990.21
318.15 K, m1 = 0.2002	265.6	990.07
318.15 K, m1 = 0.4	261.43	989.92
318.15 K, m1 = 0.599	269.7	989.82
318.15 K, m1 = 0.8028	260.8	989.72
318.15 K, m1 = 1	260.24	989.61
323.15 K, m1 = 0.015	259	–
323.15 K, m1 = 0.04	268.9	–
323.15 K, m1 = 0.07	262.6	–
323.15 K, m1 = 0.1001	267.4	–
323.15 K, m1 = 0.2002	267.4	–
323.15 K, m1 = 0.4	263.5	–
323.15 K, m1 = 0.599	271.4	–
323.15 K, m1 = 0.8028	262.77	–
323.15 K, m1 = 1	262.22	–
328.15 K, m1 = 0.015	260	985.77
328.15 K, m1 = 0.04	266.5	985.75
328.15 K, m1 = 0.07	265	985.75
328.15 K, m1 = 0.1001	269.3	985.75
328.15 K, m1 = 0.2002	269.2	–
328.15 K, m1 = 0.4	265.52	–
328.15 K, m1 = 0.599	273.1	–
328.15 K, m1 = 0.8028	264.63	–
328.15 K, m1 = 1	264.06	–
